Data from PubChem BioAssay (NCI).
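Assay format: 96-well plates, 48-hour exposure. At the TGI there is no net growth.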

How the values were obtained:
Experiment in all cases: NCI anticancer screen, dose series, 48 h
CAKI-1 renal = test system: CAKI-1 renal
HOP-62 NSCLC = test system: HOP-62 NSCLC
SNB-19 CNS = test system: SNB-19 CNS
OVCAR-3 ovarian = test system: OVCAR-3 ovarian
BT-549 breast = test system: BT-549 breast
PC-3 prostate = test system: PC-3 prostate
U251 CNS = test system: U251 CNS
SF-268 CNS = test system: SF-268 CNS
MOLT-4 leukemia = test system: MOLT-4 leukemia
SK-MEL-2 melanoma = test system: SK-MEL-2 melanoma
SW-620 colon = test system: SW-620 colon
NCI-H460 lung = test system: NCI-H460 lung
SN12C renal = test system: SN12C renal
T-47D breast = test system: T-47D breast
NCI/ADR-RES ovarian = test system: NCI/ADR-RES ovarian
LOX IMVI melanoma = test system: LOX IMVI melanoma
DU-145 prostate = test system: DU-145 prostate
MALME-3M melanoma = test system: MALME-3M melanoma
MCF7 breast = test system: MCF7 breast
A498 renal = test system: A498 renal
SK-OV-3 ovarian = test system: SK-OV-3 ovarian
SF-295 CNS = test system: SF-295 CNS
OVCAR-5 ovarian = test system: OVCAR-5 ovarian
HCT-15 colon = test system: HCT-15 colon
ACHN renal = test system: ACHN renal
KM12 colon = test system: KM12 colon
M14 melanoma = test system: M14 melanoma
TK-10 renal = test system: TK-10 renal
A549 NSCLC = test system: A549 NSCLC
UACC-257 melanoma = test system: UACC-257 melanoma
SNB-75 CNS = test system: SNB-75 CNS
HCT-116 colon = test system: HCT-116 colon
MDA-MB-231 breast = test system: MDA-MB-231 breast
MDA-MB-435 = test system: MDA-MB-435
HOP-92 NSCLC = test system: HOP-92 NSCLC
RXF 393 renal = test system: RXF 393 renal
IGROV1 ovarian = test system: IGROV1 ovarian
HS 578T breast = test system: HS 578T breast
RPMI-8226 leukemia = test system: RPMI-8226 leukemia
UACC-62 melanoma = test system: UACC-62 melanoma
NCI-H522 lung = test system: NCI-H522 lung
UO-31 renal = test system: UO-31 renal
NCI-H23 lung = test system: NCI-H23 lung
SK-MEL-28 melanoma = test system: SK-MEL-28 melanoma
OVCAR-8 ovarian = test system: OVCAR-8 ovarian
EKVX NSCLC = test system: EKVX NSCLC
786-0 renal = test system: 786-0 renal
SR leukemia = test system: SR leukemia
K-562 leukemia = test system: K-562 leukemia
HCC-2998 colon = test system: HCC-2998 colon
HT29 colon = test system: HT29 colon
OVCAR-4 ovarian = test system: OVCAR-4 ovarian
COLO 205 colon = test system: COLO 205 colon
SK-MEL-5 melanoma = test system: SK-MEL-5 melanoma
NCI-H226 lung = test system: NCI-H226 lung
CCRF-CEM leukemia = test system: CCRF-CEM leukemia

CCC(CN(C)C)C(=O)c1ccco1 (stereo unspecified)
TGI (CAKI-1 renal): > 100 µM | TGI (HOP-62 NSCLC): > 100 µM | TGI (SNB-19 CNS): > 100 µM | TGI (OVCAR-3 ovarian): > 100 µM | TGI (BT-549 breast): > 100 µM | TGI (PC-3 prostate): > 100 µM | TGI (U251 CNS): > 100 µM | TGI (SF-268 CNS): > 100 µM | TGI (MOLT-4 leukemia): 96.8 µM | TGI (SK-MEL-2 melanoma): > 100 µM | TGI (SW-620 colon): > 100 µM | TGI (NCI-H460 lung): > 100 µM | TGI (SN12C renal): > 100 µM | TGI (T-47D breast): > 100 µM | TGI (NCI/ADR-RES ovarian): > 100 µM | TGI (LOX IMVI melanoma): > 100 µM | TGI (DU-145 prostate): > 100 µM | TGI (MALME-3M melanoma): > 100 µM | TGI (MCF7 breast): > 100 µM | TGI (A498 renal): > 100 µM | TGI (SK-OV-3 ovarian): > 100 µM | TGI (SF-295 CNS): > 100 µM | TGI (OVCAR-5 ovarian): > 100 µM | TGI (HCT-15 colon): > 100 µM | TGI (ACHN renal): > 100 µM | TGI (KM12 colon): > 100 µM | TGI (M14 melanoma): > 100 µM | TGI (TK-10 renal): > 100 µM | TGI (A549 NSCLC): > 100 µM | TGI (UACC-257 melanoma): > 100 µM | TGI (SNB-75 CNS): > 100 µM | TGI (HCT-116 colon): > 100 µM | TGI (MDA-MB-231 breast): > 100 µM | TGI (MDA-MB-435): > 100 µM | TGI (HOP-92 NSCLC): > 100 µM | TGI (RXF 393 renal): > 100 µM | TGI (IGROV1 ovarian): > 100 µM | TGI (HS 578T breast): > 100 µM | TGI (RPMI-8226 leukemia): > 100 µM | TGI (UACC-62 melanoma): > 100 µM | TGI (NCI-H522 lung): 35.6 µM | TGI (UO-31 renal): > 100 µM | TGI (NCI-H23 lung): > 100 µM | TGI (SK-MEL-28 melanoma): > 100 µM | TGI (OVCAR-8 ovarian): > 100 µM | TGI (EKVX NSCLC): > 100 µM | TGI (786-0 renal): > 100 µM | TGI (SR leukemia): > 100 µM | TGI (K-562 leukemia): > 100 µM | TGI (HCC-2998 colon): > 100 µM | TGI (HT29 colon): > 100 µM | TGI (OVCAR-4 ovarian): > 100 µM

COc1ccc2[nH]c(C(O)(Cc3cccnc3)Cc3cccnc3)cc2c1
TGI (CAKI-1 renal): > 100 µM | TGI (HOP-62 NSCLC): > 100 µM | TGI (SNB-19 CNS): > 100 µM | TGI (OVCAR-3 ovarian): > 100 µM | TGI (COLO 205 colon): > 100 µM | TGI (BT-549 breast): > 100 µM | TGI (PC-3 prostate): > 100 µM | TGI (U251 CNS): > 100 µM | TGI (SF-268 CNS): > 100 µM | TGI (MOLT-4 leukemia): > 100 µM | TGI (SK-MEL-2 melanoma): > 100 µM | TGI (SW-620 colon): > 100 µM | TGI (NCI-H460 lung): > 100 µM | TGI (SN12C renal): > 100 µM | TGI (T-47D breast): > 100 µM | TGI (NCI/ADR-RES ovarian): > 100 µM | TGI (DU-145 prostate): > 100 µM | TGI (MALME-3M melanoma): > 100 µM | TGI (SK-MEL-5 melanoma): > 100 µM | TGI (MCF7 breast): > 100 µM | TGI (A498 renal): > 100 µM | TGI (SK-OV-3 ovarian): > 100 µM | TGI (SF-295 CNS): > 100 µM | TGI (OVCAR-5 ovarian): > 100 µM | TGI (HCT-15 colon): > 100 µM | TGI (ACHN renal): > 100 µM | TGI (KM12 colon): > 100 µM | TGI (M14 melanoma): > 100 µM | TGI (TK-10 renal): > 100 µM | TGI (A549 NSCLC): > 100 µM | TGI (UACC-257 melanoma): > 100 µM | TGI (SNB-75 CNS): > 100 µM | TGI (HCT-116 colon): > 100 µM | TGI (NCI-H226 lung): > 100 µM | TGI (MDA-MB-231 breast): > 100 µM | TGI (MDA-MB-435): > 100 µM | TGI (HOP-92 NSCLC): > 100 µM | TGI (RXF 393 renal): > 100 µM | TGI (IGROV1 ovarian): > 100 µM | TGI (HS 578T breast): > 100 µM | TGI (CCRF-CEM leukemia): > 100 µM | TGI (RPMI-8226 leukemia): > 100 µM | TGI (UACC-62 melanoma): > 100 µM | TGI (UO-31 renal): > 100 µM | TGI (NCI-H23 lung): > 100 µM | TGI (SK-MEL-28 melanoma): > 100 µM | TGI (OVCAR-8 ovarian): > 100 µM | TGI (EKVX NSCLC): > 100 µM | TGI (786-0 renal): > 100 µM | TGI (SR leukemia): > 100 µM | TGI (K-562 leukemia): > 100 µM | TGI (HCC-2998 colon): > 100 µM | TGI (HT29 colon): > 100 µM | TGI (OVCAR-4 ovarian): > 100 µM
